Columns and labels:
Assay in all cases: GRmax, 72 h; higher = less effect;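 further: breast cell lines in 384-well plates, nine doses across a 10^4 range, Dye Drop imaging of viable cells vs DMSO and time-zero plates, GR 0 means no net growth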
[1] = test system: AU565
[2] = test system: BT474
[3] = test system: CAL851
[4] = test system: HCC1806
[5] = test system: HCC1937
[6] = test system: HTERT_HME1
[7] = test system: MDAMB330
[8] = test system: MDAMB415
[9] = test system: MDAMB453
[10] = test system: MGH312
[11] = test system: PDXHCI002
[12] = test system: SUM159

| SMILES | GRmax, 72 h [1] [GR] | GRmax, 72 h [2] [GR] | GRmax, 72 h [3] [GR] | GRmax, 72 h [4] [GR] | GRmax, 72 h [5] [GR] | GRmax, 72 h [6] [GR] | GRmax, 72 h [7] [GR] | GRmax, 72 h [8] [GR] | GRmax, 72 h [9] [GR] | GRmax, 72 h [10] [GR] | GRmax, 72 h [11] [GR] | GRmax, 72 h [12] [GR] |
| --- | --- | --- | --- | --- | --- | --- | --- | --- | --- | --- | --- | --- |
| CO[C@@H](C)Cn1c(=O)n(C)c2cnc3ccc(-c4cncc(C(C)(C)O)c4)cc3c21 (max 10 µM) | -0.533 | -0.844 | -0.0445 | -0.0061 | 0.0369 | 0.0519 | -0.799 | -0.473 | -0.578 | -0.795 | -0.0949 | 0.0637 |
| COc1cccc2c1C(=O)c1c(O)c3c(c(O)c1C2=O)C[C@@](O)(C(=O)CO)C[C@@H]3O[C@H]1C[C@H](N)[C@H](O)[C@H](C)O1 [Doxorubicin] (max 3.162 µM) | -0.452 | -0.605 | -0.378 | -0.324 | -0.166 | -0.399 | -0.205 | -0.423 | -0.348 | -0.963 | -0.654 | -0.361 |
| CC(=O)c1c(C)c2cnc(Nc3ccc(N4CCNCC4)cn3)nc2n(C2CCCC2)c1=O (max 3.162 µM) | 0.177 | 0.519 | 1.08 | 0.692 | 1.08 | 0.257 | 0.207 | 0.117 | 0.0416 | 1.03 | 0.277 | 0.45 |
| Cc1nn(C)c(COc2ccc(N3CCN(S(=O)(=O)N(C)C)CC3)cc2)c1-c1cccc2c(CCCOc3cccc4ccccc34)c(C(=O)O)n(CCN3CCOCC3)c12 (max 10 µM) | 0.611 | 0.69 | 1.01 | 0.905 | 0.724 | -0.422 | 0.881 | 0.881 | 0.933 | 0.775 | 0.981 | 0.83 |
| CN(C)C/C=C/C(=O)Nc1ccc(C(=O)Nc2cccc(Nc3cc(-c4c[nH]c5ccccc45)ncn3)c2)cc1 [THZ-P1-2] (max 10 µM) | -0.648 | -0.697 | 0.468 | -0.467 | -0.777 | 0.566 | -0.777 | -0.513 | -0.706 | -0.983 | 0.721 | -0.394 |
| CN1CCN(CCOc2cc(OC3CCOCC3)c3c(Nc4c(Cl)ccc5c4OCO5)ncnc3c2)CC1 [Saracatinib/AZD0530] (max 10 µM) | 0.147 | -0.548 | 0.116 | 0.221 | 0.651 | 0.46 | 0.0209 | 0.324 | 0.393 | -0.401 | 0.0015 | 0.723 |
| CC(C)Nc1cc(-c2c[nH]c(C(=O)N[C@H](CO)c3cccc(Cl)c3)c2)c(Cl)cn1 [BVD523] (max 10 µM) | 0.521 | 0.977 | 0.274 | 0.76 | 0.534 | 0.001 | 0.356 | 0.533 | 0.387 | 0.914 | 0.286 | 0.156 |
| Cc1cc(Nc2ncc(Cl)c(Nc3ccccc3S(=O)(=O)C(C)C)n2)c(OC(C)C)cc1C1CCNCC1 [Ceritinib/LDK378] (max 10 µM) | 0.498 | 1.18 | -0.596 | -0.406 | -0.573 | -0.356 | 0.152 | -0.975 | -0.687 | -0.156 | -0.634 | -0.487 |
| NC1(C(=O)N[C@@H](CCO)c2ccc(Cl)cc2)CCN(c2nc[nH]c3nccc2-3)CC1 [AZD5363] (max 10 µM) | 0.373 | 0.0474 | 0.592 | 0.789 | 0.504 | 0.564 | -0.643 | -0.529 | 0.23 | -0.905 | 1.08 | 0.444 |
| CN(C)CC[C@H](CSc1ccccc1)Nc1ccc(S(=O)(=O)NC(=O)c2ccc(N3CCN(Cc4ccccc4-c4ccc(Cl)cc4)CC3)cc2)cc1[N+](=O)[O-] [ABT-737] (max 10 µM) | 0.261 | 0.181 | 0.934 | 0.729 | 0.269 | 0.495 | -0.104 | 0.352 | 0.152 | 0.0409 | 0.146 | 0.781 |
| O=C1NC(=NCc2cccs2)SC1=Cc1ccc2ncccc2c1 [R0-3306] (max 10 µM) | -0.185 | 0.144 | -0.0866 | -0.112 | -0.117 | -0.107 | -0.159 | 0.914 | 0.0452 | -0.249 | 0.0529 | 0.101 |
| NC(=O)Nc1cc(-c2cccc(F)c2)sc1C(=O)N[C@H]1CCCNC1 [AZD7762] (max 10 µM) | -0.597 | 0.0014 | -0.322 | -0.482 | -0.362 | -0.478 | -0.607 | -0.481 | -0.216 | -0.515 | -0.582 | -0.278 |
| CC(=O)c1c(C)c2cnc(Nc3ccc(N4CCN(CCOCCOCCOCCNC(=O)COc5cccc6c5C(=O)N(C5CCC(=O)NC5=O)C6=O)CC4)cn3)nc2n(C2CCCC2)c1=O (stereo not drawn) [BSJ-03-123] (max 10 µM) | -0.386 | -0.0209 | -0.208 | -0.0588 | 0.493 | -0.153 | -0.0919 | 0.149 | -0.022 | -0.894 | -0.0835 | -0.042 |
| CC(C)NC[C@@H](C(=O)N1CCN(c2ncnc3c2[C@H](C)C[C@H]3O)CC1)c1ccc(Cl)cc1 [Ipatasertib/GDC0068] (max 10 µM) | 0.274 | -0.358 | 0.471 | 0.945 | 0.535 | 0.635 | -0.657 | -0.698 | -0.155 | -0.936 | 1.1 | 0.591 |
| Nc1ccc(-c2ccc3ncc4ccc(=O)n(-c5cccc(C(F)(F)F)c5)c4c3c2)cn1 [Torin2] (max 1 µM) | -0.39 | -0.648 | -0.154 | -0.14 | 0.0726 | 0.0764 | -0.84 | -0.372 | -0.814 | -0.772 | -0.102 | 0.172 |
| Cc1nc(NC(=O)N2CCC[C@H]2C(N)=O)sc1-c1ccnc(C(C)(C)C(F)(F)F)c1 [Alpelisib/BYL719] (max 10 µM) | -0.472 | -0.809 | 0.293 | 0.726 | 0.658 | 0.307 | -0.555 | 0.613 | -0.307 | 0.104 | 0.63 | 0.602 |
| O=C(CCCCCCC(=O)Nc1ccccc1)NO [Vorinostat] (max 10 µM) | -0.491 | -0.924 | -0.183 | 0.0178 | -0.0085 | 0.0551 | -0.872 | -0.503 | -0.608 | -0.945 | -0.583 | 0.181 |
| O=C(c1cc(Cc2n[nH]c(=O)c3ccccc23)ccc1F)N1CCN(C(=O)C2CC2)CC1 [Olaparib/AZD2281] (max 10 µM) | 0.572 | 0.64 | 0.387 | 0.489 | 0.685 | 0.591 | 0.46 | 0.816 | -0.0358 | 0.537 | 0.265 | 0.76 |
| CNC(=O)c1cccc(-c2ccc3c(N4CCOC[C@@H]4C)nc(N4CCOC[C@@H]4C)nc3n2)c1 [AZD2014] (max 10 µM) | -0.0212 | -0.421 | 0.114 | 0.409 | 0.366 | 0.143 | -0.733 | -0.138 | 0.134 | -0.693 | 0.489 | 0.113 |
| COc1cc(N2CCN(C)CC2)ccc1Nc1ncc2c(n1)N(C)c1ccccc1C(=O)N2CC(F)(F)F [FMF-03-146-1] | 0.63 | 1.07 | 0.916 | 0.942 | 0.846 | 0.785 | 0.866 | 0.959 | 0.803 | 0.866 | 1.02 | 0.898 |
| CCOc1cc2ncc(C#N)c(Nc3ccc(OCc4ccccn4)c(Cl)c3)c2cc1NC(=O)/C=C/CN(C)C [Neratinib/HKI272] (max 3.162 µM) | -0.638 | -0.919 | -0.326 | -0.0883 | 0.3 | 0.0983 | -0.655 | 0.0922 | -0.322 | -0.278 | -0.161 | 0.51 |
| Cc1nc(-c2cn3c(n2)-c2ccc(-c4cnn(C(C)(C)C(N)=O)c4)cc2OCC3)n(C(C)C)n1 [Taselisib/GDC0032] (max 10 µM) | -0.531 | -0.989 | -0.0171 | -0.0297 | 0.121 | 0.0336 | -0.924 | -0.792 | -0.635 | -0.927 | -0.137 | 0.187 |
| COc1ccc2c(c1)[C@]1(C[C@H]1c1ccc3c(/C=C/c4ccc(CN5C[C@@H](C)O[C@@H](C)C5)cc4)n[nH]c3c1)C(=O)N2 | -0.165 | 0.18 | -0.11 | -0.106 | -0.149 | -0.106 | 0.284 | 0.157 | 0.0847 | -0.28 | 0.107 | -0.119 |
| C=CCn1c(=O)c2cnc(Nc3ccc(N4CCN(C)CC4)cc3)nc2n1-c1cccc(C(C)(C)O)n1 [AZD1775] (max 10 µM) | -0.485 | -0.398 | -0.55 | -0.55 | -0.0795 | -0.17 | -0.234 | -0.186 | -0.249 | -0.873 | -0.347 | -0.152 |
